Laboratory results: patent US20210230179A1, “THIENO[2,3-B]PYRIDINE DERIVATIVES AS EPAC INHIBITORS AND THEIR PHARMACEUTICAL USES” (INSTITUT NATIONAL DE LA SANTE ET DE LA RECHERCHE MEDICALE …, priority 2018, published 2021)

How the values were obtained:
[1] = system: mice; conditions: single i.v. bolus 8 mg/kg 5 min before reperfusion; 45 min occlusion, 24 h reperfusion
Procedure: Statistical significance was determined by two-way ANOVA followed by Bonferroni post-test or t-test. *p<0.01, **p<0.01, ***p<0.001, versus indicated values
Mice were anesthetized with intraperitoneal ketamine (60 mg/kg) and xylazine (6 mg/kg), intubated and ventilated mechanically. Anesthesia was maintained throughout the chirurgical procedure with 1.5% isoflurane. Body temperature was maintained at 37° C. A left thoracotomy was performed in order to enable coronary artery occlusion with a 7-0 Prolene thread placed around the left coronary artery for 45 min, followed by 24 h of reperfusion. […] Myocardial ischemia was confirmed by the presence of regional cyanosis. Reperfusion was confirmed by visualization of a hyperemic response. At this point, the chest was closed in layers. 24 h after reperfusion, mice were anesthetized again, the coronary artery was reoccluded at the previous site, and the heart was excised after Evans blue perfusion. The area at risk and the infarct area were respectively determined by Evans blue and 2,3,5-triphenyltetrazolium chloride (TTC) staining. The area at risk was identified as the non-blue region and expressed as a percentage of the left ventricle weight. The infarcted area was identified as the TTC negative zone and expressed as a percentage of area at risk.

[2] = system: type I PKA holoenzyme; assay: type I PKA holoenzyme activation; assay type: biochemical; conditions: 30 μM, presence and absence of 10 μM cAMP
[3] = biological target: T1, Epac1 (Homo sapiens, UniProt O95398); assay: Rap1-GTP in HEK293 cells transfected with Epac1; assay type: cell-based; design: expressed in transfected cells; host or cells: HEK293; conditions: 20 μM, 30 min preincubation; 8-CPT-AM 10 μM, 10 min
T1 sequence (O95398 1-923): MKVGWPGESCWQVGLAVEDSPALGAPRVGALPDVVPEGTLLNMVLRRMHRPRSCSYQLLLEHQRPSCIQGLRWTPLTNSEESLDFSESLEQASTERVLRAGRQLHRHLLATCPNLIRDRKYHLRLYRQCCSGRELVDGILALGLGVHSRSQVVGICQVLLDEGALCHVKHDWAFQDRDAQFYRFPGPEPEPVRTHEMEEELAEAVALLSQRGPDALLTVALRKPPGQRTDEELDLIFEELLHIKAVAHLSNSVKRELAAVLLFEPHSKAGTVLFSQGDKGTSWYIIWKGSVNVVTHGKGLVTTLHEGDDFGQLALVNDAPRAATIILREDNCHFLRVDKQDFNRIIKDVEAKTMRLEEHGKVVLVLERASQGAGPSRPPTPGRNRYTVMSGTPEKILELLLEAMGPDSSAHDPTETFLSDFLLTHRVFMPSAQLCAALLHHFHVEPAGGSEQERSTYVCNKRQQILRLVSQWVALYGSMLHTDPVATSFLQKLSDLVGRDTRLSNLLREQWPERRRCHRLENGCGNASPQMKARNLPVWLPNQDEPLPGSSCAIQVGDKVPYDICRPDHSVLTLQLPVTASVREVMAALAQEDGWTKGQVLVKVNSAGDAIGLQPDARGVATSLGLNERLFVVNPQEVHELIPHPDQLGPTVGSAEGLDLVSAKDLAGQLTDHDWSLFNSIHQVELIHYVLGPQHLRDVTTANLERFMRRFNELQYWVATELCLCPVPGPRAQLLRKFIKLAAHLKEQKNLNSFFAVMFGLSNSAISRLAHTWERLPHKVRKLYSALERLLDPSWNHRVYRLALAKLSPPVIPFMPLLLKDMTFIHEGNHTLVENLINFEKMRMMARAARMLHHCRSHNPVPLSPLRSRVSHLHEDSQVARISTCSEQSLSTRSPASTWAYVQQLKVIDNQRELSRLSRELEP
Procedure: (§1) FIGS. 9-13. Amounts of Rap1-GTP (n=5 in each group, mean±S.E.M) were determined in HEK293 cells transfected with Epac1 (FIGS. 9-11), Epac2A (FIG. 12) or Epac2B (FIG. 13). Cells were preincubated or not with AM-001 (FIGS. 9, 12, and 13), AM-002 (FIG. 10) or AM-003 (FIG. 11) (20 μM, 30 min) and were then treated or not with 8-CPT-AM (10 μM for Epac1 activation and 20 μM for Epac2A activation) or S-220 (50 μM for Epac2B activation) for 10 min. ESI-05 was used as positive control of Epac2A inhibition. Representative immunoblots are shown. […], *[…], ***p<0.001, ****p<0.0001, versus indicated values, one way ANOVA, Bonferroni comparison test.
(§2) Human Embryonic Kidney cells line (HEK293): HEK293 cells were maintained is in minimal essential medium with FBS (10%) and penicillin-streptomycin (1%). All media, sera, and antibiotics used in cell culture were purchased from Invitrogen.
The human Epac1/Epac2 expression vector was a gift from Dr J. L. Bos. Cells were transfected using Lipofectamine 2000 (Invitrogen) according to the manufacturer's instructions. HEK293 cells were maintained in MEM with FBS (Foetal Bovine Serum; 10%) and penicillin-streptomycin (1%). All media, sera and antibiotics used in cell culture were purchased from Invitrogen (Cergy Pontoise, France). Transient transfection experiments were performed with Lipofectamine 2000 (Invitrogen Life Technologies) in the presence of various amounts of plasmid constructs according to the manufacturer's instructions.
This cell line is commonly used for the evaluation of Epac pharmacological modulators on the cellular signaling of ectopically expressed Epac1 and Epac2 isoforms. […] Next, the inventors investigated the effect of 8-CPT-AM on the two Epac2 splice variants, Epac2A and Epac2B (FIGS. 12-13).

[4] = biological target: T2, Epac2B (Homo sapiens, UniProt Q8WZA2); assay: Rap1-GTP in HEK293 cells transfected with Epac2B; assay type: cell-based; conditions: 20 μM, 30 min preincubation; S-220 50 μM, 10 min
T2 construct: expressed in transfected cells; host or cells: HEK293
T2 sequence (Q8WZA2 1-867 isoform Q8WZA2-3): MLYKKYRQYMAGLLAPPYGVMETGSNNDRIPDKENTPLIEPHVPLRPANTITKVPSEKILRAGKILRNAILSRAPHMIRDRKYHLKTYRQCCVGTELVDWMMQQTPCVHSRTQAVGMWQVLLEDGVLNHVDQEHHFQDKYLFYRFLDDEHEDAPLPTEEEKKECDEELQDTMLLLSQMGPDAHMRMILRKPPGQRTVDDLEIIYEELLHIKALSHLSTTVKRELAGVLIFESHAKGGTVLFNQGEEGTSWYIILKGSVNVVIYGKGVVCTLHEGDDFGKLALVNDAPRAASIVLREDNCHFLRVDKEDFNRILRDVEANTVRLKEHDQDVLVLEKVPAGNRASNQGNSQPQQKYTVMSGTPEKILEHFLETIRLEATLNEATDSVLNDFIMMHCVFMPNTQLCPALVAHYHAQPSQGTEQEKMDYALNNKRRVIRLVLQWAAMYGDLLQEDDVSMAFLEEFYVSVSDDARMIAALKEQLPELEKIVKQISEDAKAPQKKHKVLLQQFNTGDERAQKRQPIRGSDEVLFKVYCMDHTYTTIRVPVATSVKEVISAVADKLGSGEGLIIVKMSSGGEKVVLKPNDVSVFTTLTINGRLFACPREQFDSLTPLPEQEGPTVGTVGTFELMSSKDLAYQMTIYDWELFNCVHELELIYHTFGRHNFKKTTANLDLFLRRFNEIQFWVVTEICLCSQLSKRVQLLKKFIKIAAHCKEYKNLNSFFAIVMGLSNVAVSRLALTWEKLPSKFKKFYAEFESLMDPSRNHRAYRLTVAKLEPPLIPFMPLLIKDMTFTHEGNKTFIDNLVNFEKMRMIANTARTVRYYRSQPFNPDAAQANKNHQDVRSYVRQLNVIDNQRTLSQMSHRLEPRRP
Procedure: as §1, §2
The human Epac1/Epac2 expression vector was a gift from Dr J. L. Bos. Cells were transfected using Lipofectamine 2000 (Invitrogen) according to the manufacturer's instructions. HEK293 cells were maintained in MEM with FBS (Foetal Bovine Serum; 10%) and penicillin-streptomycin (1%). All media, sera and antibiotics used in cell culture were purchased from Invitrogen (Cergy Pontoise, France). […]

## Nc1c(C(=O)Nc2ccc(F)cc2)sc2nc(-c3cccs3)cc(-c3ccccc3)c12 [AM-001, 3-amino-N-(4-fluorophenyl)-4-phenyl-6-(thiophen-2-yl)thieno[2,3-b]pyridine-2-carboxamide]
[1]
  ratio of infarct size to area-at-risk: 36±3%
[2]
  effect on type I PKA holoenzyme activation: did not influence
[3]
  inhibition of Epac1-induced Rap1 activation: prevented Epac1-induced Rap1 activation
[4]
  inhibition of the increase in Rap1-GTP induced by S-220: ineffective
